Assay results from ChEMBL document CHEMBL4265913, “Role of p53 circuitry in tumorigenesis: A brief review” (Eur J Med Chem, 2018).

Tests used:
[1] = molecular target: E3 ubiquitin-protein ligase Mdm2 (Homo sapiens, UniProt Q00987); test: Binding affinity to recombinant human MDM2 (1 to 118 residues) expressed in Escherichia coli BL21 (DE3) assessed as reduction in tryptophan fluorescence by microscale thermophoresis method
[2] = test system: PC-3; test: Growth inhibition of human PC3 cells harboring p53 deletion mutant after 4 days by WST8 assay; assay type: functional, cell-based; conditions: PC-3, 96 h
[3] = Antiproliferative activity against human LAN5 cells after 72 hrs by XTT assay; assay type: functional, cell-based; conditions: LA-N-5, 72 h
[4] = test system: SK-N-SH; test: Antiproliferative activity against human SK-N-SH cells after 72 hrs by XTT assay; assay type: functional, cell-based
[5] = test system: IMR-32; test: Antiproliferative activity against human IMR32 cells after 72 hrs by XTT assay; assay type: functional, cell-based; conditions: IMR-32, 72 h
[6] = test system: SH-SY5Y; test: Antiproliferative activity against human SH-SY5Y cells after 72 hrs by XTT assay; assay type: functional, cell-based
[7] = test system: IMR-5; test: Antiproliferative activity against human IMR5 cells after 72 hrs by XTT assay; assay type: functional, cell-based; conditions: IMR-5, 72 h
[8] = test system: U2OS; test: Antiproliferative activity against human U2OS cells after 72 hrs by MTT assay; assay type: functional, cell-based

Sequence of E3 ubiquitin-protein ligase Mdm2 (Q00987 whole entry, the tested form may be a part): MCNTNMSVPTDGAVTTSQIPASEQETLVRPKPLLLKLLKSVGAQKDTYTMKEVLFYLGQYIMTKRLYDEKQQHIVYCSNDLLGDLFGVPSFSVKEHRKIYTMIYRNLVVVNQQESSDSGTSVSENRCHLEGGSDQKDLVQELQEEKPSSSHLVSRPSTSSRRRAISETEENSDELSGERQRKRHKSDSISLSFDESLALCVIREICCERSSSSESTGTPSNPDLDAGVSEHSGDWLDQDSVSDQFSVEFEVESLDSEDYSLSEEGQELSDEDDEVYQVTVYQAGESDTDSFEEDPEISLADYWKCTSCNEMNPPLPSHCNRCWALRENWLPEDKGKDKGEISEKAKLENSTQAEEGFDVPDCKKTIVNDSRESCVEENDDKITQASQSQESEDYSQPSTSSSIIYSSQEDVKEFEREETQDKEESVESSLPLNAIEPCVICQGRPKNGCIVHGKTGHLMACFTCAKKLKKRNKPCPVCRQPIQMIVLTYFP

In the case of CN1C(=O)C(Cc2ccc(Cl)cc2)=C(c2c[nH]c3cc(Cl)ccc23)[C@]1(O)Cc1ccc(Cl)cc1, the Kd [1] is reported as 0.5 µM.

Compound CN(C)C(=O)[C@@H]1N[C@H](CC(C)(C)C)[C@]2(C(=O)Nc3cc(Cl)ccc32)[C@H]1c1cccc(Cl)c1 has an IC50 [2] of 22.5 µM.

With CC1(C)CCC2(CC1)N[C@H](C(=O)N[C@H]1CC[C@H](C(N)=O)OC1)[C@@H](c1ccnc(Cl)c1F)[C@@]21C(=O)Nc2cc(Cl)ccc21 the IC50 [3] was 0.0441 µM, the IC50 [4] was 0.0219 µM and the IC50 [5] was 0.0526 µM. The IC50 [6] was 0.0177 µM and the IC50 [7] was 0.0257 µM.

Work on Clc1ccc(C2N=C(c3ccccc3)c3cc(Cl)ccc3-n3cnnc32)cc1 (stereo not drawn) yielded an IC50 [8] of 4.17 µM.
